# Measurements as given in publication PMC9132363 (Journal of Medicinal Chemistry, 2022).
# Where a name gives a salt, the structure may show the parent alone. Read-outs that look alike come from different tables or passages of the source.
# Tests used:
# MTT viability assay = type: cell-based, human; conditions: human, HEK293T cells, HEK293T, 16 h, read-out: Cell viability (MTT)
# Protocol: (§1) HEK293T cells were plated in 24-well culture plates (75,000 cells/well) and incubated in a CO2 incubator. The next day, treatment was given according to the experimental requirement. Sixteen hours later, 50 μL of MTT solutions from the stock (5 mg/mL) was added, and cells were incubated in a CO2 incubator in the dark for 2 h. The medium was removed, and formazan crystals formed by the cells were dissolved using 500 μL of DMSO followed by transfer in 96-well plates. The absorbance was read at a 570 nm wavelength on a multiwell plate reader.[70]
# NRF2 = experiment: 3×ARE-LUC luciferase reporter assay; type: cell-based, human; conditions: for fold induction at 20 µM / fold induction at 6 µM / fold induction at 60 µM: Homo sapiens, 16 h; for NRF2 induction, CD (concentration needed to double luciferase expression): 3×ARE-LUC; for activation of the NRF2 reporter: in words, 6, 20 and 60 μM
# Protocol: Transient transfections of HEK293T cells were performed with the expression vectors for TK-Renilla (Promega, Madison, […]) and the expression vector ARE-LUC (Dr. J. Alam, Dept. of Molecular Genetics, Ochsner Clinic Foundation, New Orleans, LA). Cells were seeded on 24-well plates (75,000 cells per well), cultured for 16 h, and transfected using calcium phosphate. Eight hours after transfections, cells were treated with 3 different concentrations of the compounds (6, 20, and 60 μM). […] After 16 h, the cells were lysed and assayed with a dual-luciferase assay system (Promega) according to the manufacturer’s instructions. Relative light units were measured in a GloMax 96 microplate luminometer with dual injectors (Promega).
# [1] = DPPH radical scavenging assay; type: physicochemical; conditions: for EC50: 80% MeOH, 30 min, 517 nm, read-out: Radical scavenging activity EC50 (DPPH method); for IC50: supplementary CSV
# Protocol: The antioxidant activity was determined by the 2,2-diphenyl-1-picrylhydrazyl hydrate (DPPH) assay.[65]−[67] All the measurements were performed in an 80% MeOH solution, with the final reaction volume being 3 mL. A stock of DPPH solution in DMSO (10^–2 M) was prepared and stored at −20 °C, and the same procedure was performed with the antioxidant solution. Then, the DPPH stock solution was diluted to 2 mL with a final concentration of 150 μM (final volume of 3 mL and final concentration of 100 μM). The antioxidant stock was sequentially diluted to 1 mL at 3, 9, 30, 90, and 300 μM (final volume of 3 mL and final concentrations of 1, 3, 10, 30, and 100 μM). The mixture was incubated at room temperature for 30 min. Once this time had passed, the absorbance was measured in a spectrophotometer at 517 nm. Trolox, caffeic acid, and ferulic acid were used as a standard (1, 3, 10, 30, and 100 μM final concentrations). A blank using 80% MeOH solution instead of the corresponding antioxidant was used in each assay. Two independent measurements of each sample were performed. Data were processed using Origin software, and sigmoidal fitting according to the DoseResp function was performed to extrapolate the IC50 (μM) of each antioxidant.
# ROCK-II (ROKa) = ROCK-II (ROKa) (Rattus norvegicus, UniProt Q62868); experiment: ROCK inhibition studies (33P-ATP, Long S6 substrate peptide); type: biochemical; conditions: for remaining activity at 10 µM: 0.5 h, supplementary CSV, read-out: ROCK2 activity @ 10microM; for IC50: Table 3, read-out: ROCK2 inhibition IC50; for ROCK2 inhibition potency compared with fasudil: in words
# ROCK-II (ROKa), sequence (Q62868 2-543 limits assumed): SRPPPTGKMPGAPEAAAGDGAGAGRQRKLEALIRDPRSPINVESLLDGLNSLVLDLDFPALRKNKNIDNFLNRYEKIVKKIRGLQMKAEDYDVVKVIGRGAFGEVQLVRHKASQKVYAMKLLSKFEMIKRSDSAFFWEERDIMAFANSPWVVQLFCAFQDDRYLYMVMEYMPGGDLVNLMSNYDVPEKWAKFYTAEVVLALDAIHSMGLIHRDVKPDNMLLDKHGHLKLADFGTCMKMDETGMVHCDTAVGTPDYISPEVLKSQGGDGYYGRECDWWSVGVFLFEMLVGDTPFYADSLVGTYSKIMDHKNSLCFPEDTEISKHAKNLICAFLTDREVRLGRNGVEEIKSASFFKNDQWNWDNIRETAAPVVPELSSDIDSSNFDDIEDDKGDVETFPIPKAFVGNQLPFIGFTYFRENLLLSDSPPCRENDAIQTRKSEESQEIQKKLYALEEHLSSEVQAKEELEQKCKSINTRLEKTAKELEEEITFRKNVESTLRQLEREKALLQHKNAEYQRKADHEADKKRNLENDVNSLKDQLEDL
# Protocol: ROCK-II (ROKa) (5–20 mU diluted in 50 mM Tris pH 7.5, 0.1 mM EGTA, 0.1% 2-mercaptoethanol, and 1 mg/mL BSA) was assayed against the Long S6 substrate peptide ([…]) in a final volume of 25.5 μL containing 50 mM Tris pH 7.5, 0.1 mM EGTA, 30 μM Long S6 substrate peptide, 10 mM magnesium acetate, and 0.02 mM [33P-g-ATP] (50–1000 cpm/pmol) and incubated for 30 min at room temperature. Assays were stopped by addition of 5 μL of 0.5 M (3%) orthophosphoric acid and then harvested onto P81 Unifilter plates with a wash buffer of 50 mM orthophosphoric acid.
# HEK293T cells = experiment: MTT viability assay; type: cell-based, human; conditions: 20 µM, Table S3
# Protocol: as §1
# [2] = 20 microM, supplementary CSV, read-out: NRF2 induction @ 20 microM (fold change)
# [3] = HEK-293T, 20 µM, HEK293T, read-out: Luciferase assay response
# [4] = HEK-293T, HEK293T, read-out: Luciferase assay response
SMILES,EC50 [1],remaining activity at 10 µM (ROCK-II (ROKa)),IC50 (ROCK-II (ROKa)),IC50 [1],melting point,activation of the NRF2 reporter (NRF2),"viability at 16 h, 20 µM (MTT viability assay)","viability at 16 h, 60 µM (MTT viability assay)",fold induction at 20 µM (NRF2; [2]),fold induction at 20 µM (NRF2; [3]),fold induction at 6 µM (NRF2; [4]),fold induction at 60 µM (NRF2; [4]),ROCK2 inhibition potency compared with fasudil (ROCK-II (ROKa)),"NRF2 induction, CD (concentration needed to double luciferase expression) (NRF2; HEK293T)",MTT (%) (HEK293T cells)
"COC(=O)/C=C/C(=O)OC [DMF, dimethyl fumarate, reference compound]",–,–,–,–,–,–,90.4 ± 6.96%,92.21 ± 0.462%,4.9 ± 0.35,4.9 ± 0.35,–,–,–,–,–
"COc1cc(CCC(=O)N2CCCN(S(=O)(=O)c3cccc4cnccc34)CC2)ccc1O [Compound 1h, 3-(4-Hydroxy-3-methoxyphenyl)-1-(4-(isoquinolin-5-ylsulfonyl)-1,4-diazepan-1-yl)propan-1-one]",12 µM,27.4 ± 1.4%,900 nM,–,–,–,99.4 ± 1.78%,88.2 ± 2.43%,0.9 ± 0.02,0.9 ± 0.02,1.2 ± 0.09,1.2 ± 0.03,–,–,–
"Cc1c(C)c2c(c(C)c1O)CCC(C)(C(=O)O)O2 (centres unmarked) [Trolox, reference compound]",–,–,–,12 ± 2.3 µM,–,–,–,–,–,–,–,–,–,–,–
"O=C(CCc1ccc(O)c(O)c1)N1CCN(S(=O)(=O)c2cccc3cnccc23)CC1 [Compound 1c, 3-(3,4-Dihydroxyphenyl)-1-(4-(isoquinolin-5-ylsulfonyl)piperazin-1-yl)propan-1-one]",10.1 µM,32.6 ± 10.3%,320 nM,11.9 ± 3 µM,158 to 159 °C,dose-dependent activation,104 ± 1.2%,104.8 ± 0.434%,2.2 ± 0.09,2.2 ± 0.09,1.7 ± 0.09,5.8 ± 0.23,potency similar to the reference compound,15 µM,–
"O=S(=O)(c1cccc2cnccc12)N1CCCNCC1 [fasudil, 5-((1,4-Diazepan-1-yl)sulfonyl)isoquinoline, reference compound]",–,–,–,–,–,low activity,92.1 ± 3.71%,83.43 ± 0.715%,1 ± 0.06,1 ± 0.06,1.3 ± 0.21,2.9 ± 0.49,–,–,–
"COc1cc(/C=C/C(=O)O)ccc1O [ferulic acid, reference compound]",22.8 µM,–,–,–,–,–,–,–,–,–,–,–,–,–,–
"C[S+]([O-])CCCCN=C=S (centres unmarked) [SFN, sulforaphane, reference compound]",–,–,–,–,–,–,–,–,–,–,4 ± 0.08,–,–,–,–

# Second part, led by results:
EC50 [1],remaining activity at 10 µM (ROCK-II (ROKa)),IC50 (ROCK-II (ROKa)),IC50 [1],melting point,activation of the NRF2 reporter (NRF2),SMILES,"viability at 16 h, 20 µM (MTT viability assay)","viability at 16 h, 60 µM (MTT viability assay)",fold induction at 20 µM (NRF2; [2]),fold induction at 20 µM (NRF2; [3]),fold induction at 6 µM (NRF2; [4]),fold induction at 60 µM (NRF2; [4]),ROCK2 inhibition potency compared with fasudil (ROCK-II (ROKa)),"NRF2 induction, CD (concentration needed to double luciferase expression) (NRF2; HEK293T)",MTT (%) (HEK293T cells)
12.1 µM,–,–,–,–,–,"O=C(O)/C=C/c1ccc(O)c(O)c1 [caffeic acid, reference compound]",–,–,–,–,–,–,–,–,–
10.3 µM,53 ± 8.8%,> 10000 nM,–,156 to 157 °C,–,"COc1cc(CCC(=O)N2CCN(S(=O)(=O)c3cccc4cnccc34)CC2)ccc1O [Compound 1g, 3-(4-Hydroxy-3-methoxyphenyl)-1-(4-(isoquinolin-5-ylsulfonyl)piperazin-1-yl)propan-1-one]",93.7 ± 2.2%,87.5 ± 2.32%,0.8 ± 0.04,0.8 ± 0.04,1 ± 0.01,1.5 ± 0.22,–,–,–
6.42 µM,47 ± 15.1%,2330 nM,–,> 230 °C,–,"COc1cc(/C=C/C(=O)N2CCN(S(=O)(=O)c3cccc4cnccc34)CC2)ccc1O [Compound 1e, 3-(4-Hydroxy-3-methoxyphenyl)-1-(4-(isoquinolin-5-ylsulfonyl)piperazin-1-yl)prop-2-en-1-one]",60.5 ± 2.73%,55.9 ± 1.08%,1.1 ± 0.16,1.1 ± 0.16,1.2 ± 0.11,1.2 ± 0.14,–,–,–
9.61 µM,30.3 ± 7.4%,2610 nM,–,–,–,"COc1cc(/C=C/C(=O)N2CCCN(S(=O)(=O)c3cccc4cnccc34)CC2)ccc1O [Compound 1f, 3-(4-Hydroxy-3-methoxyphenyl)-1-(4-(isoquinolin-5-ylsulfonyl)-1,4-diazepan-1-yl)prop-2-en-1-one]",93.9 ± 2.27%,77.9 ± 3.9%,0.8 ± 0.02,0.8 ± 0.02,0.7 ± 0.06,1.2 ± 0.08,–,–,< 20%
9.93 µM,13.7 ± 1%,790 nM,11.9 ± 4.9 µM,161 to 162 °C,–,"O=C(/C=C/c1ccc(O)c(O)c1)N1CCN(S(=O)(=O)c2cccc3cnccc23)CC1 [Compound 1a, 3-(3,4-Dihydroxyphenyl)-1-(4-(isoquinolin-5-ylsulfonyl)piperazin-1-yl)prop-2-en-1-one]",90.9 ± 1.63%,100.7 ± 0.999%,0.8 ± 0.02,0.8 ± 0.02,0.7 ± 0.06,1.2 ± 0.08,potency similar to the reference compound,–,< 20%
10 µM,7.8 ± 1%,2130 nM,9.9 ± 1.4 µM,–,dose-dependent activation,"O=C(/C=C/c1ccc(O)c(O)c1)N1CCCN(S(=O)(=O)c2cccc3cnccc23)CC1 [Compound 1b, 3-(3,4-Dihydroxyphenyl)-1-(4-(isoquinolin-5-ylsulfonyl)-1,4-diazepan-1-yl)prop-2-en-1-one]",96.9 ± 1.13%,84.7 ± 1.83%,3.1 ± 0.04,3.1 ± 0.04,–,4.1 ± 0.06,–,12 µM,–
